From US7563918B2, “Solid and crystalline ibandronate sodium and processes for preparation thereof” (Teva Pharmaceutical Industries Ltd., priority 2004, dated 2009)

Assay: Storage stability of crystalline form (polymorphic transformation)
Format: physicochemical
Settings: stored under 100% relative humidity at 40° C. for 3 days
Text: In another embodiment, the present invention provides a solid crystalline form of ibandronate sodium denominated Form QQ. Form QQ is characterized by x-ray powder diffraction reflections at 6.2, 25.9, 26.7, 31.1, and 37.2±0.2 degrees two-theta. Form QQ can be further characterized by x-ray powder diffraction reflections at 16.9, 17.3, 21.5, 24.7, and 29.2±0.2 degrees two-theta. […] Form QQ also has a particle size distribution of not more than 100μpreferably not more than 60μ. […] can be a in the range of a monohydrate to a trihydrate. Form QQ can be further characterized by TGA, showing a weight loss of about 5 to about 12%.

CCCCCN(C)CCC(O)(P(=O)([O-])O)P(=O)(O)O.[Na+] [Form QQ, (1-hydroxy-3-(N-methyl-N-pentylamino)propylidene) bisphosphonic acid monosodium salt]
transformation into other polymorphic forms when stored: ≤ 5%
